According to patent publication US4255183A, “Substituted phenyl urea and herbicides for use in paddy field” (Hokko Chemical Industry Co., Ltd., priority 1977, dated 1981):
Read-outs that look alike come from different tables or passages of the source.

Experiments:
[1] = tested on: Echinochloa crus-galli var. oryzicola; experiment: Test Example 4: field test in submerged directly seeded paddy field, Echinochloa crus-galli var. oryzicola; type: in vivo; details: Echinochloa crus-galli, 504 h; 300 g/10 are, emulsion, 2- to 3-leaf stage, 21 days after application; read-out: Inhibition (%) of E. crus-galli var. oryzicola
Method: (§1) In a Wagner pot of 1/500 are, paddy field soil (alluvial soil) was placed and 50 seeds of Echinochloa crus-galli var. oryzicola and 30 seeds of paddy rice were seeded in the surface layer of said soil and the submerging depth was kept at about 1 cm. When Echinochloa crus-galli var. oryzicola reached at the one leaf stage and 5-leaf stage, the emulsion of a predetermined concentration, prepared according to Example 4 was added dropwise. After 30 days from the treatment with the chemical, dry weights of Echinochloa crus-galli var. oryzicola and paddy rice were measured and the inhibition rate was calculated with reference to untreated area. [formula]
(§2) In a 10 m^2 paddy field, 30 g of Echinochloa crus-galli var. oryzicola seeds were seeded at the time of puddling and the depth of submerging was kept at 3-5 cm. 3 Days after the puddling, 50 g of paddy rice at the emergence stage (Asahi species) were seeded. When Echinochloa crus-galli var. oryzicola and paddy rice reached a 2- to 3-leaf stage, a predetermined dose of the emulsion prepared according to Example 4 was applied uniformly by means of a manual spraying machine. Test results were examined 21 days after the application of the chemicals in the similar manner as in Test Example 1.
(§3) The comparative chemical 1 used was that commercially available and the comparative chemical 2 used was prepared according to Example 4.

[2] = tested on: Echinochloa crus-galli var. oryzicola; experiment: Test Example 2: concrete pot test on killing effect, Echinochloa crus-galli var. oryzicola; type: in vivo; details: Echinochloa crus-galli, 720 h, granule, 30 days after treatment; for inhibition at 1000 g/ha: 100 g/10 are; for inhibition at 3000 g/ha: 300 g/10 are; for inhibition at 9000 g/ha: 900 g/10 are
In short: (§4)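 Barnyardgrass seeded in flooded alluvial paddy soil (~3 cm water) in concrete pots, with 2.5-leaf Asahi rice transplanted before weed emergence. Granules applied at weed 1-leaf or 5-leaf stage. Dry weights measured 30 days after treatment; inhibition rate calculated versus untreated area.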

Bulrush = experiment: Test Example 5: Wagner pot test, herbicidal effect on Bulrush; type: in vivo
Method: (§5) In a 1/7500 are Wagner pot, sieved paddy field soil (alluvial soil) was charged. Thereafter, in the center portion of the pot, 2 roots of paddy rice (Asahi species) at the 2- to 3-leaf stage were transplanted and 20 seeds of Bulrush per pot were seeded in the surface of the above soil. The pot was submerged at the depth of about 2 cm. The other Dopatrium junceum and umbrella plant were generated naturally. After seeding, when each of the weeds reached the same leaf age as defined in Table 5 given herein, a predetermined concentration of the emulsion prepared according to Example 4 was applied dropwise on the surface of the pot. The test was carried out by repeating the same test three times per area and the results were determined 20 days after the application of the chemicals with regard to the herbicidal effect and chemical injury on paddy rice on the basis of the evaluation index as shown below.
(§6) As the comparative chemicals Molinate, Benthiocarb and DCMU, those commercially available were used.
(§7) In the above table, the inhibition rate was calculated according to the method as described in Test Example 1.

[3] = tested on: Echinochloa crus-galli var. oryzicola; experiment: Test Example 3: field test in transplanted paddy field, Echinochloa crus-galli var. oryzicola; type: in vivo; details: Echinochloa crus-galli, 1440 h; 300 g/10 are, granule, applied at 4-leaf stage, examined 60 days after transplantation; read-out: Inhibition (%) of E. crus-galli var. oryzicola
Method: as §1
(§8) In a 10 m^2 paddy field, young seedlings of paddy rice (Asahi species) at the 2,5-leaf stage were transplanted 30 days after the puddling the submerging at the depth of 3-5 cm. 25 Days after the transplantation, when Echinochloa crus-galli var. oryzicola reached 4-leaf stage, a predetermined dose of the granule prepared according to Example 1 was applied. Test results were examined 60 days after the transplantation of paddy rice in the similar manner as in Test Example 1.
(§9) Comparative chemicals used were all those commercially available and in the case of the comparative chemical 2, CNP was applied 3 days after the transplantation of paddy rice and after 25 days a mixture of Benthiocarb and Simetryne was applied.

Acute fish toxicity = details: in vivo; young carp, Official Standard of Ministry of Agriculture & Forestry; read-out: acute fish toxicity TLm
Method: (§10) Acute oral toxicity LD50 value of the compound of the invention measured on SD-strain rat is more than 2,000 mg/Kg for any of the trans-form, cis-form and a mixture thereof in equal amount and further acute fish toxicity TLm value (as defined by Official Standard issued from Ministry of Agriculture & Forestry) measured on young carp is more than 20 ppm for any of the above compounds.

Dopatrium junceum = experiment: Test Example 5: Wagner pot test, herbicidal effect on Dopatrium junceum; type: in vivo
Method: as §5, §6, §7

paddy rice [4] = experiment: Test Example 3: field test in transplanted paddy field, paddy rice; type: in vivo, paddy rice (Asahi species); details: Oryza sativa; 300 g/10 are, granule, applied 25 days after transplantation, examined 60 days after transplantation
Method: as §1, §8, §9

paddy rice [5] = experiment: whole plant or invertebrate; type: in vivo, paddy rice (Asahi species); details: Oryza sativa, 720 h, granule, 30 days; for inhibition at 1000 g/ha: 100 g/10 are; for inhibition at 3000 g/ha: 300 g/10 are; for inhibition at 9000 g/ha: 900 g/10 are
In short: as §4

paddy rice [6] = experiment: Test Example 4: field test in submerged directly seeded paddy field, paddy rice; type: in vivo, paddy rice (Asahi species); details: Oryza sativa, 504 h; 300 g/10 are, emulsion, 2- to 3-leaf stage, 21 days after application
Method: as §1, §2, §3

Acute oral toxicity = details: in vivo, SD-strain rat
Method: as §10

Umbrella plant = experiment: Test Example 5: Wagner pot test, herbicidal effect on umbrella plant; type: in vivo; details: 20 days after application
Method: as §5, §6, §7

[7] = read-out: Inhibition (%) by treatment at 1-leaf stage of E. crus-galli var. oryzicola, E. crus-galli var. oryzicola
[8] = read-out: Inhibition (%) by treatment at 5-leaf stage of E. crus-galli var. oryzicola, E. crus-galli var. oryzicola
[9] = 300 g/10a, leaf age 3, 20 days after application
[10] = 300 g/10a, leaf age 3-5, 20 days after application
[11] = 600 g/10a, leaf age 3, 20 days after application
[12] = 600 g/10a, leaf age 3-5, 20 days after application
[13] = 300 g/10a, leaf age 2, 20 days after application
[14] = 600 g/10a, leaf age 2, 20 days after application
[15] = rice at 3.5 leaves stage, read-out: Inhibition (%) by treatment at 1-leaf stage of E. crus-galli var. oryzicola, paddy rice
[16] = rice at 7 leaves stage, read-out: Inhibition (%) by treatment at 5-leaf stage of E. crus-galli var. oryzicola, paddy rice
[17] = 300 g/10a, leaf age 2 (first group of columns)
[18] = 300 g/10a, leaf age 2 (second group of columns)
[19] = 600 g/10a, leaf age 2 (first group of columns)
[20] = 600 g/10a, leaf age 2 (second group of columns)

Row | SMILES | inhibition at 3000 g/ha [1] [%] | inhibition at 1000 g/ha [2, 7] [%] | inhibition at 1000 g/ha [2, 8] [%] | inhibition at 3000 g/ha [2, 7] [%] | inhibition at 3000 g/ha [2, 8] [%] | inhibition at 9000 g/ha [2, 7] [%] | inhibition at 9000 g/ha [2, 8] [%] | Weed kill degree, Bulrush (Bulrush; [9]) | Weed kill degree, Bulrush (Bulrush; [10]) | Weed kill degree, Bulrush (Bulrush; [11]) | Weed kill degree, Bulrush (Bulrush; [12]) | inhibition at 3000 g/ha [3] [%] | LC50 (Acute fish toxicity) [µg/mL] | Weed kill degree, Dopatrium junceum (Dopatrium junceum; [13]) | Weed kill degree, Dopatrium junceum (Dopatrium junceum; [9]) | Weed kill degree, Dopatrium junceum (Dopatrium junceum; [14]) | Weed kill degree, Dopatrium junceum (Dopatrium junceum; [11]) | inhibition at 3000 g/ha (paddy rice [4]) [%] | inhibition at 1000 g/ha (paddy rice [5]; [15]) [%] | inhibition at 1000 g/ha (paddy rice [5]; [16]) [%] | other results
1 | C/C=C\COc1ccc(NC(=O)N(C)C)cc1 [cis-form, 3-(4-cis-crotyloxyphenyl)-1,1-dimethyl urea] | 100 | 100 | 100 | 100 | 100 | 100 | 100 | 5 (100) | 5 (100) | 5 (100) | 5 (100) | 100 | > 20 | 5 (100) | 5 (100) | 5 (100) | 5 (100) | 0 | 0 | 0 | inhibition at 3000 g/ha (paddy rice [5]; [15]): 0%; inhibition at 3000 g/ha (paddy rice [5]; [16]): 0%; inhibition at 9000 g/ha (paddy rice [5]; [15]): 0%; inhibition at 9000 g/ha (paddy rice [5]; [16]): 0%; inhibition at 3000 g/ha (paddy rice [6]): 0%; LD50 (Acute oral toxicity): > 2000 mg/kg; Weed kill degree, Umbrella plant (Umbrella plant; [17]): 5 (100); Weed kill degree, Umbrella plant (Umbrella plant; [18]): 5 (100); Weed kill degree, Umbrella plant (Umbrella plant; [19]): 5 (100); Weed kill degree, Umbrella plant (Umbrella plant; [20]): 5 (100)
2 | CC=CCOc1ccc(NC(=O)N(C)C)cc1 [Mixture of trans- and cis-forms 1:1] | 100 | 100 | 100 | 100 | 100 | 100 | 100 | 5 (100) | 5 (100) | 5 (100) | 5 (100) | 100 | > 20 | 5 (100) | 5 (100) | 5 (100) | 5 (100) | 0 | 0 | 0 | inhibition at 3000 g/ha (paddy rice [5]; [15]): 0%; inhibition at 3000 g/ha (paddy rice [5]; [16]): 0%; inhibition at 9000 g/ha (paddy rice [5]; [15]): 0%; inhibition at 9000 g/ha (paddy rice [5]; [16]): 0%; inhibition at 3000 g/ha (paddy rice [6]): 0%; LD50 (Acute oral toxicity): > 2000 mg/kg; Weed kill degree, Umbrella plant (Umbrella plant; [17]): 5 (100); Weed kill degree, Umbrella plant (Umbrella plant; [18]): 5 (100); Weed kill degree, Umbrella plant (Umbrella plant; [19]): 5 (100); Weed kill degree, Umbrella plant (Umbrella plant; [20]): 5 (100)
3 | C/C=C/COc1ccc(NC(=O)N(C)C)cc1 [trans-form, 3-(4-trans-crotyloxyphenyl)-1,1-dimethyl urea] | 100 | 100 | 100 | 100 | 100 | 100 | 100 | 5 (100) | 5 (100) | 5 (100) | 5 (100) | 100 | > 20 | 5 (100) | 5 (100) | 5 (100) | 5 (100) | 0 | 0 | 0 | inhibition at 3000 g/ha (paddy rice [5]; [15]): 0%; inhibition at 3000 g/ha (paddy rice [5]; [16]): 0%; inhibition at 9000 g/ha (paddy rice [5]; [15]): 0%; inhibition at 9000 g/ha (paddy rice [5]; [16]): 0%; inhibition at 3000 g/ha (paddy rice [6]): 0%; LD50 (Acute oral toxicity): > 2000 mg/kg; Weed kill degree, Umbrella plant (Umbrella plant; [17]): 5 (100); Weed kill degree, Umbrella plant (Umbrella plant; [18]): 5 (100); Weed kill degree, Umbrella plant (Umbrella plant; [19]): 5 (100); Weed kill degree, Umbrella plant (Umbrella plant; [20]): 5 (100)
